Experimental data published in ChEMBL document CHEMBL5352486, “Design, synthesis, in vitro - In vivo biological evaluation of novel thiazolopyrimidine compounds as antileishmanial agent with PTR1 inhibition” (Eur J Med Chem, 2023).
In brackets after ≈: the same amount, converted by molar mass. Activity calls are given as the source filed them. The rule behind the calls is not given here.

Key:
Leishmania infantum [1] = test: Antileishmanial activity against Leishmania infantum infected in BALB/c mouse model of cutaneous leishmaniasis assessed as footpad lesion development at 50 mg/kg/day, ID administered for 21 days and measured after 32 weeks by Giemsa staining based analysis (reference value: 4.91 +/- 0.01); assay type: functional; settings: time 21 day
Leishmania infantum [2] = test: Antileishmanial activity against Leishmania infantum infected in BALB/c mouse model of visceral leishmaniasis assessed as footpad lesion development at 50 mg/kg/day, IM administered for 21 days and measured after 1 week by Giemsa staining based analysis (reference value: 30.43 +/- 0.60); assay type: functional; settings: time 21 day
[3] = test system: DHFR (human) versus PTR1 (Leishmania major); test: Selectivity index, ratio of IC50 for human DHFR to IC50 for Leishmania major PTR1; assay type: toxicity; settings: human DHFR enzyme and Leishmania major PTR1 enzyme, read-out: Ratio IC50
Leishmania infantum [4] = test: Antileishmanial activity against Leishmania infantum infected in BALB/c mouse model of cutaneous leishmaniasis assessed as parasite growth in foodpad at 50 mg/kg/day, ID administered for 21 days; assay type: functional, organism-based; settings: time 21.0 day
Pteridine reductase 1 = target: T1, Pteridine reductase 1 (Leishmania major, UniProt Q01782); test: Inhibition of recombinant Leishmania major PTR1 expressed in Escherichia coli BL21 using folic acid as substrate in presence of NADPH
T1 sequence (Q01782 whole entry): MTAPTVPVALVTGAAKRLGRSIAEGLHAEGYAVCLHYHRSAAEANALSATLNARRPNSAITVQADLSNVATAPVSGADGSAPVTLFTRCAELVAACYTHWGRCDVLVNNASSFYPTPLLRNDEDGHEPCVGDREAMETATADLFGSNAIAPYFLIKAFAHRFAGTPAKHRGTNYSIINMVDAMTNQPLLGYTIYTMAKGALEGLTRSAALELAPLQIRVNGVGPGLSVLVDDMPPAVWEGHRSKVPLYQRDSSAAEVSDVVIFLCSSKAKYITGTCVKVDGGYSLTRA

Leishmania infantum [5] = test: Antileishmanial activity against Leishmania infantum infected in BALB/c mouse model of visceral leishmaniasis assessed as footpad lesion development at 50 mg/kg/day, IM administered for 21 days and measured after 11 weeks by Giemsa staining based analysis (reference value: 20.71 +/- 0.48); assay type: functional; settings: time 21 day
Leishmania infantum [6] = test: Antileishmanial activity against Leishmania infantum infected in BALB/c mouse model of cutaneous leishmaniasis assessed as footpad lesion development at 50 mg/kg/day, ID administered for 21 days and measured after 24 weeks by Giemsa staining based analysis (reference value: 4.90 +/- 0.02); assay type: functional; settings: time 21 day
Leishmania infantum [7] = test: Antileishmanial activity against Leishmania infantum infected in BALB/c mouse model of cutaneous leishmaniasis assessed as footpad lesion development at 50 mg/kg/day, ID administered for 21 days and measured after 18 weeks by Giemsa staining based analysis (reference value: 4.42 +/- 0.03); assay type: functional; settings: time 21 day
Leishmania infantum [8] = test: Antileishmanial activity against Leishmania infantum infected in BALB/c mouse model of cutaneous leishmaniasis assessed as footpad lesion development at 50 mg/kg/day, ID administered for 21 days and measured after 2 weeks by Giemsa staining based analysis (reference value: 1.61 +/- 0.03); assay type: functional; settings: time 21 day
[9] = (§1) Cytotoxicity against mouse L929 cells by alamar blue method; assay type: toxicity, cell-based; settings: mouse, L929 cells
L929 = test: as §1; assay type: toxicity, cell-based; settings: l929
Leishmania infantum [10] = test: Antileishmanial activity against Leishmania infantum MHOM/TN/1980/IPT1 incubated for 48 hrs by XTT method; assay type: functional, organism-based; settings: MHOM/TN/1980/IPT1, 48 h
[11] = (§2) Cytotoxicity against mouse RAW264.7 cells by alamar blue method; assay type: toxicity, cell-based; settings: mouse, RAW264.7 cells
RAW264.7 = test: as §2; assay type: toxicity, cell-based; settings: raw264.7
Leishmania tropica [12] = test: Antileishmanial activity against Leishmania tropica MHOM/A7/1974/SAF-K27 incubated for 48 hrs by XTT method; assay type: functional, organism-based; settings: MHOM/A7/1974/SAF-K27, 48 h
Leishmania infantum [13] = test: Antileishmanial activity against Leishmania infantum infected in BALB/c mouse model of visceral leishmaniasis assessed as footpad lesion development at 50 mg/kg/day, IM administered for 21 days and measured after 6 weeks by Giemsa staining based analysis (reference value: 25.81 +/- 0.84); assay type: functional; settings: time 21 day
Leishmania infantum [14] = test: Antileishmanial activity against Leishmania infantum infected in BALB/c mouse model of cutaneous leishmaniasis assessed as footpad lesion development at 50 mg/kg/day, ID administered for 21 days and measured after 20 weeks by Giemsa staining based analysis (reference value: 4.54 +/- 0.04); assay type: functional; settings: time 21 day
Leishmania infantum [15] = test: Antileishmanial activity against Leishmania infantum infected in BALB/c mouse model of visceral leishmaniasis assessed as footpad lesion development at 50 mg/kg/day, IM administered for 21 days and measured after 2 weeks by Giemsa staining based analysis (reference value: 29.73 +/- 0.63); assay type: functional; settings: time 21 day
Leishmania infantum [16] = test: Antileishmanial activity against Leishmania infantum infected in BALB/c mouse model of cutaneous leishmaniasis assessed as footpad lesion development at 50 mg/kg/day, ID administered for 21 days and measured after 8 weeks by Giemsa staining based analysis (reference value: 3.13 +/- 0.03); assay type: functional; settings: time 21 day
Leishmania infantum [17] = test: Antileishmanial activity against Leishmania infantum infected in BALB/c mouse model of cutaneous leishmaniasis assessed as parasite growth in spleen at 50 mg/kg/day, ID administered for 21 days; assay type: functional, organism-based; settings: time 21.0 day
Leishmania infantum [18] = test: Antileishmanial activity against Leishmania infantum infected in BALB/c mouse model of cutaneous leishmaniasis assessed as footpad lesion development at 50 mg/kg/day, ID administered for 21 days and measured after 26 weeks by Giemsa staining based analysis (reference value: 4.91 +/- 0.01); assay type: functional; settings: time 21 day
Leishmania tropica [19] = test: Antileishmanial activity against Leishmania tropica MHOM/A7/1974/SAF-K27 incubated for 48 hrs by Neubauer hemocytometer analysis; assay type: functional, organism-based; settings: MHOM/A7/1974/SAF-K27, 48 h
Leishmania infantum [20] = test: Antileishmanial activity against Leishmania infantum infected in BALB/c mouse model of cutaneous leishmaniasis assessed as footpad lesion development at 50 mg/kg/day, ID administered for 21 days and measured after 14 weeks by Giemsa staining based analysis (reference value: 3.88 +/- 0.03); assay type: functional; settings: time 21 day
Leishmania infantum [21] = test: Antileishmanial activity against Leishmania infantum infected in BALB/c mouse model of cutaneous leishmaniasis assessed as footpad lesion development at 50 mg/kg/day, ID administered for 21 days and measured after 16 weeks by Giemsa staining based analysis (reference value: 4.20 +/- 0.03); assay type: functional; settings: time 21 day
Leishmania infantum [22] = test: Antileishmanial activity against Leishmania infantum infected in BALB/c mouse model of visceral leishmaniasis assessed as parasite growth in liver at 50 mg/kg/day, IM administered for 21 days; assay type: functional, organism-based; settings: time 21.0 day
Leishmania infantum [23] = test: Antileishmanial activity against Leishmania infantum infected in BALB/c mouse model of visceral leishmaniasis assessed as parasite growth in spleen at 50 mg/kg/day, IM administered for 21 days; assay type: functional, organism-based; settings: time 21.0 day
Leishmania infantum [24] = test: Antileishmanial activity against Leishmania infantum infected in BALB/c mouse model of visceral leishmaniasis assessed as footpad lesion development at 50 mg/kg/day, IM administered for 21 days and measured after 4 weeks by Giemsa staining based analysis (reference value: 28.01 +/- 0.65); assay type: functional; settings: time 21 day
Leishmania infantum [25] = test: Antileishmanial activity against Leishmania infantum infected in BALB/c mouse model of cutaneous leishmaniasis assessed as footpad lesion development at 50 mg/kg/day, ID administered for 21 days and measured after 22 weeks by Giemsa staining based analysis (reference value: 4.71 +/- 0.04); assay type: functional; settings: time 21 day

Row | Structure (SMILES) | Activity (Leishmania infantum [1]) | Activity (Leishmania infantum [2]) | selectivity ratio [3] | Activity (Leishmania infantum [4]) | IC50 (Pteridine reductase 1) | Activity (Leishmania infantum [5]) | Activity (Leishmania infantum [6]) | Activity (Leishmania infantum [7]) | Activity (Leishmania infantum [8]) | IC50 [9] | log10 IC50 (µg/mL) (L929) | IC50 (Leishmania infantum [10]) | IC50 [11] | log10 IC50 (µg/mL) (RAW264.7) | IC50 (Leishmania tropica [12]) | Activity (Leishmania infantum [13]) | Activity (Leishmania infantum [14]) | Activity (Leishmania infantum [15]) | Activity (Leishmania infantum [16]) | Activity (Leishmania infantum [17]) | also measured
1 | CCOC(=O)N1CCN(c2ncc3nc(NC(=O)c4ccc(Cl)c(Cl)c4)sc3n2)CC1 | 2.42 | 30.63 | 42.6 | Active | 123 µM | 28.55 | 4.9 | 4.4 | 1.6 | 14.1 µg/mL (≈ 29.3 µM) | 1.15 | 0.042 µg/mL (≈ 0.0873 µM) | 15 µg/mL (≈ 31.2 µM) | 1.18 | 0.04 µg/mL (≈ 0.0831 µM) | 25.71 | 4.52 | 29.54 | 3.1 | Active | Activity (Leishmania infantum [18]): 4.73; IC50 (Leishmania tropica [19]): 0.039 µg/mL (≈ 0.081 µM); Activity (Leishmania infantum [20]): 3.81; Activity (Leishmania infantum [21]): 4.2; Activity (Leishmania infantum [22]): Active; Activity (Leishmania infantum [23]): inactive; Activity (Leishmania infantum [24]): 27.85; Activity (Leishmania infantum [25]): 4.69
2 | CN(C)c1ncc2nc(NC(=O)c3ccc(Cl)c([N+](=O)[O-])c3)sc2n1 | 2.08 | 30.38 | 7.02 | Active | 680 µM | 29.85 | 4.88 | 4.41 | 1.59 | 21 µg/mL (≈ 55.5 µM) | 1.32 | 6.77 µg/mL (≈ 17.9 µM) | 8.75 µg/mL (≈ 23.1 µM) | 0.94 | 6.68 µg/mL (≈ 17.6 µM) | 26.28 | 4.53 | 29.49 | 3.09 | Active | Activity (Leishmania infantum [18]): 4.7; IC50 (Leishmania tropica [19]): 7.14 µg/mL (≈ 18.8 µM); Activity (Leishmania infantum [20]): 3.83; Activity (Leishmania infantum [21]): 3.83; Activity (Leishmania infantum [22]): Active; Activity (Leishmania infantum [23]): Active; Activity (Leishmania infantum [24]): 27.83; Activity (Leishmania infantum [25]): 4.67
3 | CN1CCN(c2ncc3nc(NC(=O)c4ccc(Cl)c(Cl)c4)sc3n2)CC1 | 4.73 | 30.3 | 312 | inactive | 21.3 µM | 20.13 | 4.89 | 4.4 | 1.61 | 27.7 µg/mL (≈ 65.5 µM) | 1.44 | 8.28 µg/mL (≈ 19.6 µM) | 16.4 µg/mL (≈ 38.8 µM) | 1.22 | 7.81 µg/mL (≈ 18.4 µM) | 25.72 | 4.53 | 29.53 | 3.1 | Active | Activity (Leishmania infantum [18]): 4.87; IC50 (Leishmania tropica [19]): 7.71 µg/mL (≈ 18.2 µM); Activity (Leishmania infantum [20]): 3.89; Activity (Leishmania infantum [21]): 4.21; Activity (Leishmania infantum [22]): inactive; Activity (Leishmania infantum [23]): Active; Activity (Leishmania infantum [24]): 27.9; Activity (Leishmania infantum [25]): 4.69
